Experimental data taken from patent publication US20090275583A1, “ANTIVIRAL COMPOUNDS AND USE THEREOF” (Myriad Genetics, Incorporated, priority 2006, published 2009).
Like-named read-outs stand apart in the source and are kept apart here.

Tests used:
HIV-1NL4-3 = experiment: P4-MAGI assay; format: cell-based
Outline: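 HeLa-derived CD4+ P4 cells carrying an LTR-driven lacZ were infected with HIV-1NL4-3 at MOI 1 with DEAE-Dextran, then compound added in increasing concentrations right after virus; infection reported as Tat-induced β-galactosidase. TC50 measured by WST-1 in mock-infected cells.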

[1] = system: HIV-1 laboratory strain, NL4-3; experiment: MT-4 cytoprotection assay; format: cell-based
Outline: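 MT-4 cells mock- or batch-infected with NL4-3 (MOI 0.0005) for 2 h, washed, then cultured 4 days with increasing compound concentrations. Viability read by WST-1 tetrazolium reduction: cytoprotection in infected cells, toxicity in mock-infected cells.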

[2] = Human immunodeficiency virus 1, 24 h, P4 cells, 24 hour incubation, β-galactosidase expression, read-out: P4-MAGI IC50
[3] = Human immunodeficiency virus 1, NL43, MT4, 96 h, MT-4 cells, four days incubation, WST-1 readout, read-out: MT4 EC50
[4] = Human immunodeficiency virus 1, text statement, less than about 100 nm, read-out: P4-MAGI assay IC50
[5] = Human immunodeficiency virus 1, NL43, less than about 100 nm, read-out: MT-4 assay EC50 (concentration of compound that reduces the virus induced cytopathic effect by 50%)

Structure (SMILES) | IC50 (HIV-1NL4-3; [2]) [µM] | EC50 [1, 3] [µM] | IC50 (HIV-1NL4-3; [4]) [µM] | EC50 [1, 5] [µM]
C=C(C)[C@@H]1CC[C@]2(C(=O)NCc3cccc(CNCc4nc5ccc(C(=O)O)cc5[nH]4)c3)CC[C@]3(C)C(CCC4[C@@]5(C)CC[C@H](O)C(C)(C)C5CC[C@]43C)C12 (stereo partly drawn) [Example 80] | 0.242 | 1 | – | –
C=C(C)[C@@H]1CC[C@]2(C(=O)NCCc3cccc(C(=O)NCc4ccccc4OC)c3)CC[C@]3(C)C(CCC4[C@@]5(C)CC[C@H](O)C(C)(C)C5CC[C@]43C)C12 (stereo partly drawn) [Example 200] | 0.0763 | 0.759 | – | –
C=C(C)[C@@H]1CC[C@]2(C(=O)NCc3cc(C(=O)NCc4ccc(C(=O)O)cc4)ccc3F)CC[C@]3(C)C(CCC4[C@@]5(C)CC[C@H](O)C(C)(C)C5CC[C@]43C)C12 (stereo partly drawn) [Example 99] | 0.0201 | 0.0028 | < 0.1 | < 0.1
C=C(C)[C@@H]1CC[C@]2(C(=O)NCc3cc(C(=O)NCc4ccc(C(=O)OC)cc4)ccc3F)CC[C@]3(C)C(CCC4[C@@]5(C)CC[C@H](O)C(C)(C)C5CC[C@]43C)C12 (stereo partly drawn) [Example 100] | 0.0215 | 0.0013 | < 0.1 | < 0.1
C=C(C)[C@@H]1CC[C@]2(C(=O)NCc3cccc(C(=O)NCc4cccc(C(N)=O)c4)c3)CC[C@]3(C)C(CCC4[C@@]5(C)CC[C@H](O)C(C)(C)C5CC[C@]43C)C12 (stereo partly drawn) [Example 23] | 0.0527 | 0.329 | – | –
C=C(C)[C@@H]1CC[C@]2(CNCc3cccc(C(=O)NCc4cccc(C(=O)O)c4)c3)CC[C@@]3(C)C(CCC4[C@@]5(C)CC[C@H](O)C(C)(C)C5CC[C@]43C)C12 (stereo partly drawn) [Example 143] | 0.12 | 1.3 | – | –
C=C(C)[C@@H]1CC[C@]2(C(=O)NCc3cccc(C(=O)NCC(C)(C)c4cccc(C(=O)O)c4)c3)CC[C@]3(C)C(CCC4[C@@]5(C)CC[C@H](O)C(C)(C)C5CC[C@]43C)C12 (stereo partly drawn) [Example 39] | 0.0402 | 0.0053 | < 0.1 | < 0.1
C=C(C)[C@@H]1CC[C@]2(C(=O)NCCc3cccc(C(=O)NCc4ncccc4C(=O)OC)c3)CC[C@]3(C)C(CCC4[C@@]5(C)CC[C@H](O)C(C)(C)C5CC[C@]43C)C12 (stereo partly drawn) [Example 227] | 0.0675 | 0.761 | – | –
C=C(C)[C@@H]1CC[C@]2(C(=O)NCCc3cccc(C(=O)NCc4ccc(C(=O)N[C@@H](C(=O)O)[C@@H](C)N5CCOCC5)cc4)c3)CC[C@]3(C)C(CCC4[C@@]5(C)CC[C@H](O)C(C)(C)C5CC[C@]43C)C12 (stereo partly drawn) [Example 176] | 0.072 | 0.057 | – | –
C=C(C)[C@@H]1CC[C@]2(C(=O)NCc3cc(C(=O)NCc4cccc(C(=O)O)c4F)ccc3F)CC[C@]3(C)C(CCC4[C@@]5(C)CC[C@H](O)C(C)(C)C5CC[C@]43C)C12 (stereo partly drawn) [Example 186] | 0.12 | 0.83 | – | –
C=C(C)[C@@H]1CC[C@]2(C(=O)NCCc3cccc(C(=O)NCc4ccc(N)cn4)c3)CC[C@]3(C)C(CCC4[C@@]5(C)CC[C@H](O)C(C)(C)C5CC[C@]43C)[C@@H]12 (stereo partly drawn) [Example 149] | 0.023 | 0.088 | – | –
C=C(C)[C@@H]1CC[C@]2(C(=O)NCCc3cccc(C(=O)NCc4ccc(N(C)C)cc4)c3)CC[C@]3(C)C(CCC4[C@@]5(C)CC[C@H](O)C(C)(C)C5CC[C@]43C)C12 (stereo partly drawn) [Example 179] | 0.072 | 0.098 | – | –
C=C(C)[C@@H]1CC[C@]2(C(=O)NCc3cc(C(=O)NCCc4ccc(C(=O)O)cc4)ccc3F)CC[C@]3(C)C(CCC4[C@@]5(C)CC[C@H](O)C(C)(C)C5CC[C@]43C)C12 (stereo partly drawn) [Example 95] | 0.0112 | 0.0015 | < 0.1 | < 0.1
C=C(C)[C@@H]1CC[C@]2(C(=O)NCCc3cccc(C(=O)NCc4ccc(C(=O)N(C)CCc5ccccn5)cc4)c3)CC[C@]3(C)C(CCC4[C@@]5(C)CC[C@H](O)C(C)(C)C5CC[C@]43C)C12 (stereo partly drawn) [Example 137] | 0.0108 | 0.0105 | < 0.1 | < 0.1
C=C(C)[C@@H]1CC[C@]2(C(=O)NCCc3cccc(C(=O)NCc4ccc(C(=O)N[C@@H](C(=O)OC)[C@H](C)O)cc4)c3)CC[C@]3(C)C(CCC4[C@@]5(C)CC[C@H](O)C(C)(C)C5CC[C@]43C)C12 (stereo partly drawn) [Example 161] | 0.015 | 0.015 | – | –
C=C(C)[C@@H]1CC[C@]2(C(=O)NCCc3ccc(C)c(C(=O)NCc4ccc(C(=O)O)cn4)c3)CC[C@]3(C)C(CCC4[C@@]5(C)CC[C@H](O)C(C)(C)C5CC[C@]43C)C12 (stereo partly drawn) [Example 273] | 0.127 | 1.86 | – | –
C=C(C)[C@@H]1CC[C@]2(C(=O)NCCc3cccc(C(=O)NCc4ccc(C(=O)NCCN5CCCCC5)cc4)c3)CC[C@]3(C)C(CCC4[C@@]5(C)CC[C@H](O)C(C)(C)C5CC[C@]43C)C12 (stereo partly drawn) [Example 172] | 0.093 | 0.014 | – | –
C=C(C)[C@@H]1CC[C@]2(C(=O)NCCc3cccc(C(=O)NCc4ccc(C(=O)NCCN5CCC(O)CC5)cc4)c3)CC[C@]3(C)C(CCC4[C@@]5(C)CC[C@H](O)C(C)(C)C5CC[C@]43C)C12 (stereo partly drawn) [Example 173] | 0.028 | 0.002 | – | –

Structure (SMILES) | IC50 (HIV-1NL4-3; [2]) [µM] | EC50 [1, 3] [µM] | IC50 (HIV-1NL4-3; [4]) [µM] | EC50 [1, 5] [µM]
C=C(C)[C@@H]1CC[C@]2(C(=O)NCCc3cccc(C(=O)NCc4ccc(C(=O)N[C@H](Cc5cc6ccccc6[nH]5)C(=O)O)cc4)c3)CC[C@]3(C)C(CCC4[C@@]5(C)CC[C@H](O)C(C)(C)C5CC[C@]43C)C12 (stereo partly drawn) [Example 166] | 0.022 | 0.013 | – | –
C=C(C)[C@@H]1CC[C@]2(C(=O)NCCc3cccc(C(=O)NCC(O)CO)c3)CC[C@]3(C)C(CCC4[C@@]5(C)CC[C@H](O)C(C)(C)C5CC[C@]43C)C12 (stereo partly drawn) [Example 256] | 0.0505 | 0.204 | – | –
C=C(C)[C@@H]1CC[C@]2(C(=O)NCc3cccc(C(=O)NCCCCC(=O)O)c3)CC[C@]3(C)C(CCC4[C@@]5(C)CC[C@H](O)C(C)(C)C5CC[C@]43C)C12 (stereo partly drawn) [Example 1] | 0.0493 | 0.615 | – | –
C=C(C)[C@@H]1CC[C@]2(C(=O)NCCc3cccc(C(=O)NCc4ccc(C(=O)N[C@H](Cc5ccc(O)cc5)C(=O)O)cc4)c3)CC[C@]3(C)C(CCC4[C@@]5(C)CC[C@H](O)C(C)(C)C5CC[C@]43C)C12 (stereo partly drawn) [Example 164] | 0.007 | 0.007 | – | –
C=C(C)[C@@H]1CC[C@]2(C(=O)NCc3cccc(C(=O)NCc4cc(C(=O)OC)ccc4F)c3)CC[C@]3(C)C(CCC4[C@@]5(C)CC[C@H](O)C(C)(C)C5CC[C@]43C)C12 (stereo partly drawn) [Example 24] | 0.186 | > 10 | – | –
C=C(C)[C@@H]1CC[C@]2(C(=O)NCCc3cccc(C(=O)NCc4ccccc4O)c3)CC[C@]3(C)C(CCC4[C@@]5(C)CC[C@H](O)C(C)(C)C5CC[C@]43C)C12 (stereo partly drawn) [Example 198] | 0.0576 | 0.468 | – | –
C=C(C)[C@@H]1CC[C@]2(C(=O)NCCc3cccc(C(=O)NCc4cccc(C(=O)O)c4)c3)CC[C@]3(C)C(CCC4[C@@]5(C)CC[C@H](O)C(C)(C)C5CC[C@]43C)C12 (stereo partly drawn) [Example 58] | 0.0186 | 0.018 | < 0.1 | < 0.1
C=C(C)[C@@H]1CC[C@]2(C(=O)NCCc3cccc(C(=O)NCc4ccc(NCCCN5CCOCC5)cc4)c3)CC[C@]3(C)C(CCC4[C@@]5(C)CC[C@H](O)C(C)(C)C5CC[C@]43C)C12 (stereo partly drawn) [Example 191] | 0.029 | 0.016 | – | –
C=C(C)[C@@H]1CC[C@]2(C(=O)NCc3cccc(C(=O)NCCCCC(=O)O)c3)CC[C@]3(C)C(CCC4[C@@]5(C)CCC(=O)C(C)(C)C5CC[C@]43C)C12 (stereo partly drawn) [Example 141] | 0.157 | 1.5 | – | –
C=C(C)[C@@H]1CC[C@]2(C(=O)NCc3ccc(F)c(C(=O)NCCc4ccc(C(=O)O)cc4)c3)CC[C@]3(C)C(CCC4[C@@]5(C)CC[C@H](O)C(C)(C)C5CC[C@]43C)C12 (stereo partly drawn) [Example 103] | 0.0693 | 0.0073 | < 0.1 | < 0.1
C=C(C)[C@@H]1CC[C@]2(C(=O)NCCc3cccc(C(=O)NCc4ccc(C(=O)N[C@H](CC(=O)O)C(=O)O)cn4)c3)CC[C@]3(C)C(CCC4[C@@]5(C)CC[C@H](O)C(C)(C)C5CC[C@]43C)C12 (stereo partly drawn) [Example 222] | 0.0657 | 0.727 | – | –
C=C(C)[C@@H]1CC[C@]2(C(=O)NCCc3ccc(C)c(C(=O)NCc4ccc(C(=O)O)cc4)c3)CC[C@]3(C)C(CCC4[C@@]5(C)CC[C@H](O)C(C)(C)C5CC[C@]43C)C12 (stereo partly drawn) [Example 274] | 0.0845 | 4.32 | – | –
C=C(C)[C@@H]1CC[C@]2(C(=O)NCCc3cccc(C(=O)N[C@H](C)C4CCC(C(=O)OC)CC4)c3)CC[C@]3(C)C(CCC4[C@@]5(C)CC[C@H](O)C(C)(C)C5CC[C@]43C)C12 (stereo partly drawn) [Example 213] | 0.0389 | 0.022 | – | –
C=C(C)[C@@H]1CC[C@]2(C(=O)NCc3cccc(C(=O)NCc4ccc(C(=O)O)cc4F)c3)CC[C@]3(C)C(CCC4[C@@]5(C)CC[C@H](O)C(C)(C)C5CC[C@]43C)C12 (stereo partly drawn) [Example 22] | 0.0154 | 0.0097 | – | < 0.1
C=C(C)[C@@H]1CC[C@]2(C(=O)NCCc3cccc(C(=O)NCc4ccc(C(=O)N[C@H](Cc5cc6ccccc6[nH]5)C(=O)OC)cc4)c3)CC[C@]3(C)C(CCC4[C@@]5(C)CC[C@H](O)C(C)(C)C5CC[C@]43C)C12 (stereo partly drawn) [Example 167] | 0.022 | 0.019 | – | –
C=C(C)[C@@H]1CC[C@]2(C(=O)NCc3cccc(C(=O)NCc4ccc(C(=O)O)s4)c3)CC[C@]3(C)C(CCC4[C@@]5(C)CC[C@H](O)C(C)(C)C5CC[C@]43C)C12 (stereo partly drawn) [Example 35] | 0.0532 | 0.085 | < 0.1 | < 0.1
C=C(C)[C@@H]1CC[C@]2(C(=O)NCc3cccc(C(=O)Nc4ccc5cc(C(=O)O)ccc5c4)c3)CC[C@]3(C)C(CCC4[C@@]5(C)CC[C@H](O)C(C)(C)C5CC[C@]43C)C12 (stereo partly drawn) [Example 18] | 0.108 | 6.1 | – | –
